The values below come from PubChem BioAssay AID248 (DTP/NCI, 2004).

Values joined by “and” are separate entries in the source; they are usually repeats but may differ in a detail not shown here. Equal values may be shown once. Toxic doses and inconclusive results are not listed. Square brackets hold non-standard residues; d marks the D form. Peptide text beside a SMILES is read from it. Ac5c = NC1(C(=O)O)CCCC1

In the assay the test system is L1210 leukemia ip in BDF1 mice, survival T/C. The experiment in a line: NCI In Vivo Anticancer Drug Screen. Data for tumor model L1210 Leukemia (intraperitoneal) in B6D2F1 (BDF1) mice. The note with it: endpoint: mean survival time, higher = longer survival. The gist of the method:
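Antitumor effect is assessed in tumor-bearing animals. Survival in the compound arm is compared with a vehicle-dosed control arm and expressed as their quotient.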

Setting [1] is: dose: 100.0 mg/kg/injection, schedule: Q04DX003 (ip), vehicle: Klucel (hydroxypropylcellulose) (HPC).
Setting [2] is: dose: 200.0 mg/kg/injection, schedule: Q04DX003 (ip), vehicle: Klucel (hydroxypropylcellulose) (HPC).
[3] abbreviates: dose: 400.0 mg/kg/injection, schedule: Q04DX003 (ip), vehicle: Klucel (hydroxypropylcellulose) (HPC).
Where [4] appears, read: dose: 50.0 mg/kg/injection, schedule: Q01DX009 (ip), vehicle: saline with Tween-80.
The mark [5] stands for this setting: dose: 100.0 mg/kg/injection, schedule: Q01DX009 (ip), vehicle: saline with Tween-80.
The mark [6] stands for this setting: dose: 200.0 mg/kg/injection, schedule: Q01DX009 (ip), vehicle: saline with Tween-80.
Setting [7] is: dose: 100.0 mg/kg/injection, schedule: Q01DX001 (ip), vehicle: saline with Tween-80.
[8] abbreviates: dose: 200.0 mg/kg/injection, schedule: Q01DX001 (ip), vehicle: saline with Tween-80.
[9] abbreviates: dose: 100.0 mg/kg/injection, schedule: Q04DX003 (ip), vehicle: saline.
The mark [10] stands for this setting: dose: 200.0 mg/kg/injection, schedule: Q04DX003 (ip), vehicle: saline.
[11] abbreviates: dose: 400.0 mg/kg/injection, schedule: Q04DX003 (ip), vehicle: saline.

In the case of `CC(=O)OC(=O)C1C2CC3C(C2)C31` (configuration not stated), the T/C reads like this: (dose: 6.25 mg/kg/injection, schedule: Q01DX009 (ip), vehicle: other) 101 % of control; (dose: 12.5 mg/kg/injection, schedule: Q01DX009 (ip), vehicle: other) 97 % of control; (dose: 25.0 mg/kg/injection, schedule: Q01DX009 (ip), vehicle: other) 93 % of control.
Consider `Cc1ccc(NC(=O)Nc2ccc(S(N)(=O)=O)cc2)c([N+](=O)[O-])c1`, for which the T/C under setting [1] is 88 % of control, the T/C under setting [2] was 89 % of control and the T/C under setting [3] was 88 % of control.
In the case of `CSC1CCCCC1O` (configuration not stated), the T/C under setting [4] is 89 % of control, the T/C under setting [5] is 92 % of control and the T/C under setting [6] was 92 % of control.
In the case of `CCNC(=S)S.[Zn+2]`, the T/C (dose: 1.0 mg/kg/injection, schedule: Q01DX015 (ip), vehicle: saline) was 102 % of control; the T/C (dose: 2.0 mg/kg/injection, schedule: Q01DX015 (ip), vehicle: saline) was 100 % of control; the T/C (dose: 4.0 mg/kg/injection, schedule: Q01DX015 (ip), vehicle: saline) is 102 % of control; the T/C (dose: 8.0 mg/kg/injection, schedule: Q01DX015 (ip), vehicle: saline) was 108 % of control; the T/C (dose: 10.0 mg/kg/injection, schedule: Q01DX001 (ip), vehicle: carboxymethylcellulose (CMC)) was 95 % of control; the T/C (dose: 20.0 mg/kg/injection, schedule: Q01DX001 (ip), vehicle: carboxymethylcellulose (CMC)) is 97 % of control. Also, the T/C by setting is: (dose: 40.0 mg/kg/injection, schedule: Q01DX001 (ip), vehicle: carboxymethylcellulose (CMC)) 95 % of control; (dose: 80.0 mg/kg/injection, schedule: Q01DX001 (ip), vehicle: carboxymethylcellulose (CMC)) 97 % of control.
With `C=NN1CCOC1=O`, the T/C by setting is: (dose: 100.0 mg/kg/injection, schedule: Q04DX002 (ip), vehicle: saline) 106 % of control; (dose: 200.0 mg/kg/injection, schedule: Q04DX002 (ip), vehicle: saline) 91 % of control; (dose: 400.0 mg/kg/injection, schedule: Q04DX002 (ip), vehicle: saline) 111 % of control.
On to `O=[N+]([O-])c1cccc(N=Cc2ccccc2)c1`, for which the T/C reads like this: (dose: 100.0 mg/kg/injection, schedule: Q01DX009 (ip), vehicle: Klucel (hydroxypropylcellulose) (HPC)) 117 % of control; under setting [1], 88 % of control; (dose: 200.0 mg/kg/injection, schedule: Q01DX009 (ip), vehicle: Klucel (hydroxypropylcellulose) (HPC)) 111 % of control; under setting [2], 96 % of control; (dose: 400.0 mg/kg/injection, schedule: Q01DX009 (ip), vehicle: Klucel (hydroxypropylcellulose) (HPC)) 88 % of control; under setting [3], 97 % of control.
As to `O=C(NC1CC1(c1ccccc1)c1ccccc1)NC1CC1(c1ccccc1)c1ccccc1` (configuration not stated), the T/C (dose: 300.0 mg/kg/injection, schedule: Q01DX001 (ip), vehicle: other) was 86 % of control.
On to `CCOC(=O)CN1C(=O)CN=C(c2ccccn2)c2cc(Cl)ccc21`, for which the T/C under setting [5] is 91 % of control and the T/C under setting [6] was 93 % of control.
In the case of `N=c1c2ncn(C3CCCC3)c2ncn1O`, the T/C under setting [4] is 114 % of control; the T/C (dose: 50.0 mg/kg/injection, schedule: Q04DX003 (ip), vehicle: saline with Tween-80) is 106 % of control; the T/C under setting [7] is 98 % of control; the T/C under setting [5] was 103 % of control; the T/C (dose: 100.0 mg/kg/injection, schedule: Q04DX003 (ip), vehicle: saline with Tween-80) is 95 % of control; the T/C under setting [8] was 98 % of control. Also, the T/C is, setting by setting: under setting [6], 115 % of control; (dose: 200.0 mg/kg/injection, schedule: Q04DX003 (ip), vehicle: saline with Tween-80) 94 % of control.
As to `CCCCCCCCCC1=NN(c2cccc(S(=O)(=O)N(C)c3ccccc3)c2)C(=O)C1`, the T/C under setting [9] was 94 % of control, the T/C under setting [10] is 94 % of control and the T/C under setting [11] was 91 % of control.
As to `NC(N)=NCCCC(N=Cc1ccccc1O)C(=O)O` (configuration not stated), the T/C reads like this: (dose: 100.0 mg/kg/injection, schedule: Q01DX001 (ip), vehicle: saline) 96 % of control; (dose: 200.0 mg/kg/injection, schedule: Q01DX001 (ip), vehicle: saline) 102 % of control; (dose: 400.0 mg/kg/injection, schedule: Q01DX001 (ip), vehicle: saline) 95 % of control.
As for `CCCCCCCCC(=O)CCCC`, the T/C is, setting by setting: (dose: 100.0 mg/kg/injection, schedule: Q01DX009 (ip), vehicle: saline) 103 % of control; (dose: 200.0 mg/kg/injection, schedule: Q01DX009 (ip), vehicle: saline) 100 % of control; (dose: 400.0 mg/kg/injection, schedule: Q01DX009 (ip), vehicle: saline) 100 % of control.
`Cc1cc(NC(=O)Oc2ccccc2)ccc1S(=O)(=O)F`: the T/C is 102 % of control (dose: 75.0 mg/kg/injection, schedule: Q01DX001 (ip), vehicle: steriod suspending solution); 96 % of control (dose: 150.0 mg/kg/injection, schedule: Q01DX001 (ip), vehicle: steriod suspending solution); 98 % of control (dose: 300.0 mg/kg/injection, schedule: Q01DX001 (ip), vehicle: steriod suspending solution).
For the compound `CC(C)(C)NC(=O)CCC1C2C=CC(C2)C1C(=O)NC(C)(C)C` (configuration not stated), the T/C is, setting by setting: (dose: 100.0 mg/kg/injection, schedule: Q01DX001 (ip), vehicle: Klucel (hydroxypropylcellulose) (HPC)) 97 % of control; under setting [1], 101 % of control; (dose: 200.0 mg/kg/injection, schedule: Q01DX001 (ip), vehicle: Klucel (hydroxypropylcellulose) (HPC)) 92 % of control; under setting [2], 97 % of control; (dose: 400.0 mg/kg/injection, schedule: Q01DX001 (ip), vehicle: Klucel (hydroxypropylcellulose) (HPC)) 98 % of control; under setting [3], 107 % of control.
Regarding `NCC(=O)NC1(C(=O)O)CCCC1` (H-Gly-[Ac5c]-OH), the T/C by setting is: (dose: 16.0 mg/kg/injection, schedule: Q01DX Z (ip), vehicle: carboxymethylcellulose (CMC)) 104 % of control; (dose: 24.0 mg/kg/injection, schedule: Q01DX Z (ip), vehicle: carboxymethylcellulose (CMC)) 109 % of control; (dose: 30.0 mg/kg/injection, schedule: Q01DX Z (ip), vehicle: other) 103 % of control; (dose: 36.0 mg/kg/injection, schedule: Q01DX Z (ip), vehicle: carboxymethylcellulose (CMC)) 118 % of control; (dose: 54.0 mg/kg/injection, schedule: Q01DX017 (ip), vehicle: saline) 157 % of control; (dose: 54.0 mg/kg/injection, schedule: Q01DX Z (ip), vehicle: saline) 121 % of control. For the same compound, the T/C (dose: 66.0 mg/kg/injection, schedule: Q01DX Z (ip), vehicle: saline) is 115 % of control; the T/C under setting [9] was 103 % of control; the T/C (dose: 120.0 mg/kg/injection, schedule: Q01DX Z (ip), vehicle: saline) is 152 % of control; the T/C (dose: 150.0 mg/kg/injection, schedule: Q01DX Z (ip), vehicle: saline) is 156 % of control; the T/C (dose: 180.0 mg/kg/injection, schedule: Q01DX Z (ip), vehicle: carboxymethylcellulose (CMC)) is 105 % of control; the T/C under setting [10] was 124 % of control. Further, the T/C runs as follows: (dose: 225.0 mg/kg/injection, schedule: Q01DX Z (ip), vehicle: saline) 115 % of control; (dose: 240.0 mg/kg/injection, schedule: Q01DX Z (ip), vehicle: other) 124 % of control; under setting [11], 155 % of control; (dose: 480.0 mg/kg/injection, schedule: Q01DX Z (ip), vehicle: other) 88 % of control.
Turning to `CC1CCCCN1Cc1ccccc1COC(=O)c1cccc(Cl)c1` (configuration not stated), the T/C by setting is: (dose: 25.0 mg/kg/injection, schedule: Q04DX002 (ip), vehicle: other) 98 % of control; (dose: 50.0 mg/kg/injection, schedule: Q04DX002 (ip), vehicle: other) 113 % of control; (dose: 50.0 mg/kg/injection, schedule: Q04DX002 (ip), vehicle: saline with Tween-80) 91 % of control; (dose: 100.0 mg/kg/injection, schedule: Q04DX002 (ip), vehicle: other) 88 % of control; (dose: 100.0 mg/kg/injection, schedule: Q04DX002 (ip), vehicle: saline with Tween-80) 94 % of control and 86 % of control; (dose: 400.0 mg/kg/injection, schedule: Q04DX002 (ip), vehicle: saline with Tween-80) 101 % of control.
Regarding `Cc1cc(Oc2nccnc2C)cc(C)c1N(C)C`, the T/C was 101 % of control under setting [1], 94 % of control under setting [2] and 94 % of control under setting [3].
Regarding `CCCCCCCCCCCCCCCC=C(C)C`, the T/C reads like this: under setting [7], 101 % of control; under setting [8], 103 % of control.
